In patent US6603046B1, “Bis-aromatic a,β-unsaturated ketones” (Lica Pharmaceuticals A/S, priority 1992, dated 2003):

Each compound was assayed on human lymphocytes (assay: Lymphocyte Proliferation Assay, 3H-thymidine incorporation (Example 13)). Conditions: Homo sapiens, Lymphocyte, read-out: inhibition of lymphocytes (lower figure).

| Compound | inhibition at 0.5 µg/mL | inhibition at 1 µg/mL | inhibition at 5 µg/mL | inhibition at 10 µg/mL |
| --- | --- | --- | --- | --- |
| COc1ccc(CCC(=O)c2ccco2)c(OC)c1 | 3.6% | 11.7% | 33.6% | 41.9% |
| COc1ccc(CCC(=O)c2ccc(O)cc2)c(OC)c1 [drawing 92] | 0% | 0% | 3% | 1.5% |
| C=CCOc1ccc(C(=O)/C=C/c2c(OC)cc(OC)cc2OC)cc1 | 8% | 12% | 24% | 48% |
| O=C(/C=C/c1ccc(O)c(O)c1)c1ccc(O)cc1O | 0% | 1% | 12% | 51% |
| COc1ccc(C(=O)/C=C/c2ccccc2)cc1 [drawing 66] | 2% | 7.5% | 91% | 100% |

Each compound was assayed on L. major promastigotes (assay: L. major promastigotes from 4-days cultures, 3H-thymidine uptake (Examples 5, 14)). Conditions: not given.
Assay type: cell-based, Leishmania major
Method: Parasite cultures. The same parasite culture as described in Example 4. Promastigotes were harvested on day 4 of the culture and used for the parasiticidal assay.
Effect on promastigotes. […] Following incubation, […] of ^3H-thymidine was added to each well and further incubated for 18 hrs. Promastigotes were then harvested on filter paper by means of a cell harvester (Skatron, Lierbyen, Norway), extensively washed with distilled water and counted in a scintillation counter (Minaxi Ti-Carb 4000, United Technologies, Packard, USA).
L. major promastigotes. The L. major promastigotes were prepared as described in Example 4 and harvested after 4 days.

| Compound | activity against Leishmania parasites in vitro |
| --- | --- |
| COc1ccc(CCC(=O)c2ccc(O)cc2)c(OC)c1 [3-(2,4-dimethoxyphenyl)-1-(4-hydroxyphenyl)propan-1-on, reference compound] | very low activity |

Same assay, conditions: Leishmania major, read-out: percentage inhibition of 3H-thymidine uptake (mean ± SEM); Table 5.1; 0.5 μg/ml

| Compound | inhibition at 0.5 µg/mL |
| --- | --- |
| COCCOCOc1ccc(C(=O)/C=C/c2ccc(OC)cc2OC)cc1 | 20% |
| COc1ccc(/C=C/C(=O)c2ccc(O)cc2)c(OC)c1 [drawing 55] | 19.4% |
| COc1cc(/C=C/C(=O)c2ccc(O)cc2O)ccc1O [drawing 59] | 7.8% |
| C=CCOc1ccc(C(=O)/C=C/c2ccc(OC)cc2OC)cc1 [drawing 56] | 7.5% |
| COCOc1ccc(C(=O)/C=C/c2ccc(OC)cc2OC)cc1 [drawing 58] | 8.5% |

Same assay, conditions: Leishmania major, read-out: percentage inhibition of 3H-thymidine uptake (mean ± SEM); Table 5.1; 1 μg/ml

| Compound | inhibition at 1 µg/mL |
| --- | --- |
| O=C(/C=C/c1ccccc1)c1ccc(O)cc1 [drawing 53] | 35.9% |
| COCCOCOc1ccc(C(=O)/C=C/c2ccc(OC)cc2OC)cc1 | 14% |
| COc1ccc(/C=C/C(=O)c2ccc(O)cc2)c(OC)c1 [drawing 55] | 27.3% |
| COc1cc(/C=C/C(=O)c2ccc(O)cc2O)ccc1O [drawing 59] | 14.3% |
| C=CCOc1ccc(C(=O)/C=C/c2ccc(OC)cc2OC)cc1 [drawing 56] | 17.5% |
| COCOc1ccc(C(=O)/C=C/c2ccc(OC)cc2OC)cc1 [drawing 58] | 18.1% |
| O=C(/C=C/c1ccc(O)cc1)c1ccccc1 [drawing 54] | 39.1% |

Same assay, conditions: Leishmania major, read-out: percentage inhibition of 3H-thymidine uptake (mean ± SEM); Table 5.1; 5 μg/ml

| Compound | inhibition at 5 µg/mL |
| --- | --- |
| O=C(/C=C/c1ccccc1)c1ccc(O)cc1 [drawing 53] | 70.8% |
| COCCOCOc1ccc(C(=O)/C=C/c2ccc(OC)cc2OC)cc1 | 31% |
| COc1ccc(/C=C/C(=O)c2ccc(O)cc2)c(OC)c1 [drawing 55] | 61.8% |
| COc1cc(/C=C/C(=O)c2ccc(O)cc2O)ccc1O [drawing 59] | 66.7% |
| C=CCOc1ccc(C(=O)/C=C/c2ccc(OC)cc2OC)cc1 [drawing 56] | 64.5% |
| COCOc1ccc(C(=O)/C=C/c2ccc(OC)cc2OC)cc1 [drawing 58] | 56.3% |
| O=C(/C=C/c1ccc(O)cc1)c1ccccc1 [drawing 54] | 70.1% |

Same assay, conditions: Leishmania major, read-out: percentage inhibition of 3H-thymidine uptake (mean ± SEM); Table 5.1; 10 μg/ml

| Compound | inhibition at 10 µg/mL |
| --- | --- |
| O=C(/C=C/c1ccccc1)c1ccc(O)cc1 [drawing 53] | 82.8% |
| COCCOCOc1ccc(C(=O)/C=C/c2ccc(OC)cc2OC)cc1 | 60.5 ± 5.6% |
| COc1ccc(/C=C/C(=O)c2ccc(O)cc2)c(OC)c1 [drawing 55] | 91.9 ± 4.6% |
| COc1cc(/C=C/C(=O)c2ccc(O)cc2O)ccc1O [drawing 59] | 83.3 ± 4.6% |
| C=CCOc1ccc(C(=O)/C=C/c2ccc(OC)cc2OC)cc1 [drawing 56] | 84.3 ± 3.5% |
| COCOc1ccc(C(=O)/C=C/c2ccc(OC)cc2OC)cc1 [drawing 58] | 65 ± 5.9% |
| O=C(/C=C/c1ccc(O)cc1)c1ccccc1 [drawing 54] | 84.5% |

Same assay, conditions: Leishmania major, read-out: percentage inhibition of 3H-thymidine uptake (mean ± SEM); Table 5.1; 20 μg/ml

| Compound | inhibition at 20 µg/mL |
| --- | --- |
| O=C(/C=C/c1ccccc1)c1ccc(O)cc1 [drawing 53] | 91.9 ± 2.1% |
| O=C(/C=C/c1ccc(O)cc1)c1ccccc1 [drawing 54] | 94.3 ± 1.6% |

Same assay, conditions: Leishmania major; Table 14.1; 0.5 μg/ml; read-out: percentage inhibition of promastigotes (upper figure)

| Compound | inhibition at 0.5 µg/mL |
| --- | --- |
| COc1ccc(CCC(=O)c2ccco2)c(OC)c1 | 9.5% |
| COc1ccc(CCC(=O)c2ccc(O)cc2)c(OC)c1 [drawing 92] | 8.5 ± 1.8% |
| C=CCOc1ccc(C(=O)/C=C/c2c(OC)cc(OC)cc2OC)cc1 | 25 to 44% |
| O=C(/C=C/c1ccc(O)c(O)c1)c1ccc(O)cc1O | 7% |
| COc1ccc(C(=O)/C=C/c2ccccc2)cc1 [drawing 66] | 20.6% |

Same assay, conditions: Leishmania major; Table 14.1; 1 μg/ml; read-out: percentage inhibition of promastigotes (upper figure)

| Compound | inhibition at 1 µg/mL |
| --- | --- |
| CC(C)=CCc1cc(/C=C/C(=O)c2ccc(O)c(CC=C(C)C)c2O)ccc1O [drawing 98] | 12% |
| COc1ccc(CCC(=O)c2ccco2)c(OC)c1 | 9.4% |
| COc1ccc(CCC(=O)c2ccc(O)cc2)c(OC)c1 [drawing 92] | 5.6 ± 5.4% |
| C=CCOc1ccc(C(=O)/C=C/c2c(OC)cc(OC)cc2OC)cc1 | 15 to 46% |
| O=C(/C=C/c1ccc(O)c(O)c1)c1ccc(O)cc1O | 8% |
| COc1ccc(C(=O)/C=C/c2ccccc2)cc1 [drawing 66] | 26.3% |

Same assay, conditions: Leishmania major; Table 14.1; 5 μg/ml; read-out: percentage inhibition of promastigotes (upper figure)

| Compound | inhibition at 5 µg/mL |
| --- | --- |
| CC(C)=CCc1cc(/C=C/C(=O)c2ccc(O)c(CC=C(C)C)c2O)ccc1O [drawing 98] | 28% |
| O=C(/C=C/c1ccccc1)c1ccc(F)cc1 | 88% |
| COc1ccc(CCC(=O)c2ccco2)c(OC)c1 | 55.1% |
| COc1ccc(CCC(=O)c2ccc(O)cc2)c(OC)c1 [drawing 92] | 22.5 ± 9.7% |
| C=CCOc1ccc(C(=O)/C=C/c2c(OC)cc(OC)cc2OC)cc1 | 14 to 50% |
| O=C(/C=C/c1ccc(O)c(O)c1)c1ccc(O)cc1O | 4.2% |
| COc1ccc(C(=O)/C=C/c2ccccc2)cc1 [drawing 66] | 68.1% |

Same assay, conditions: Leishmania major; Table 14.1; 10 μg/ml; read-out: percentage inhibition of promastigotes (upper figure)

| Compound | inhibition at 10 µg/mL |
| --- | --- |
| CC(C)=CCc1c(O)ccc(C(=O)/C=C/c2cc(O)c3c(c2)C=CC(C)(C)O3)c1O [drawing 97] | 18% |
| CC(C)=CCc1cc(/C=C/C(=O)c2ccc(O)c(CC=C(C)C)c2O)ccc1O [drawing 98] | 91% |
| O=C(/C=C/c1ccccc1)c1ccc(F)cc1 | 99% |
| COc1ccc(CCC(=O)c2ccco2)c(OC)c1 | 89.6% |
| COc1ccc(CCC(=O)c2ccc(O)cc2)c(OC)c1 [drawing 92] | 31.3 ± 16% |
| C=CCOc1ccc(C(=O)/C=C/c2c(OC)cc(OC)cc2OC)cc1 | 22 to 49% |
| O=C(/C=C/c1ccc(O)c(O)c1)c1ccc(O)cc1O | 10.6% |
| COc1ccc(C(=O)/C=C/c2ccccc2)cc1 [drawing 66] | 85.5% |
